Here are results for 38 compounds from ChEMBL document CHEMBL1133580, “Successful virtual screening of a chemical database for farnesyltransferase inhibitor leads” (J Med Chem, 2000).

What all share (assay type): protein-complex assay
In assay [1] the target is T1, Protein farnesyltransferase (Rattus norvegicus) (UniProt Q04631+Q02293). In words: In vitro inhibition of farnesyl transferase (FT) by using FT [3H]-SPA kit at the dose of 100 uM.
Assay [2] has as its target T1, Protein farnesyltransferase (Rattus norvegicus). Kind of assay: In vitro inhibition of farnesyl transferase (FT) by using FT [3H]-SPA kit at the dose of 500 uM.
For assay [3] the target is unchanged. Kind of assay: In vitro inhibition of farnesyl transferase (FT) by using FT [3H]-SPA kit; IA is inactive.
Assay [4] has as its target Protein farnesyltransferase (Rattus norvegicus, UniProt Q02293+Q04631). In words: In vitro inhibition of Farnesyltransferase (FT) by using FT [3H]-SPA kit.

The source made the active and inactive calls. The rule behind the calls is not given here.

The compound `O=C(OCC(F)(F)C(F)(F)C(F)(F)C(F)(F)F)c1cc([N+](=O)[O-])cc2c1-c1c(cc([N+](=O)[O-])cc1[N+](=O)[O-])C2=O` showed an inhibition in assay [1] of 41.1%.

Take `O=C(Cc1cccc2ccccc12)NC(NC(=S)N1CCOCC1)C(Cl)(Cl)Cl` (stereo not drawn): the inhibition in assay [1] came out at 23.8%.

The compound `Cc1c(/N=C/N(C(=O)c2ccccc2)c2cccc([N+](=O)[O-])c2C)cccc1[N+](=O)[O-]` displayed an inhibition in assay [2] of 17%.

As to `CN(C)c1ccc(C(=O)N/N=C/c2ccccc2[N+](=O)[O-])cc1`, the inhibition in assay [2] stood at 28.3%.

In assay [1], `O=C(Nc1ccc(F)cc1[N+](=O)[O-])Oc1ccc2cc(Br)ccc2c1` showed an inhibition of 26.4%.

`CCN(CC)c1cccc(OC(=O)Nc2cccc(C(F)(F)F)c2)c1`: the inhibition in assay [2] was 21.2%.

As for `O=C(Cc1c(Cl)cc(Cl)cc1Cl)C(=O)Oc1c(Cl)cc(Cl)cc1Cl`, the inhibition entry in assay [3] was “inactive”.

With `COc1ccccc1/N=C(\S)NC1CCCCCCCCCCC1`, the inhibition entry in assay [3] is “inactive”.

Take `COc1ccc(CCN2C(=O)CS/C2=N\c2c(C)cccc2C)cc1OC`: in assay [3], the inhibition result was “inactive”.

With `CSc1nc(N/C=C(\C#N)S(=O)(=O)c2ccccc2Cl)nc(N(C)C)n1`, the inhibition entry in assay [3] was “inactive”.

With `COc1cccc(NS(=O)(=O)c2ccc(-c3ccc(S(=O)(=O)Nc4cccc(OC)c4)s3)s2)c1`, the inhibition entry in assay [3] was “inactive”.

Turning to `O=C1c2cc([N+](=O)[O-])cc(C(=O)N3CCCCC3)c2-c2c1cc([N+](=O)[O-])cc2[N+](=O)[O-]`, in assay [4], the IC50 stood at 96 µM.

On to `O=[N+]([O-])c1cc(C(F)(F)F)cc([N+](=O)[O-])c1Oc1ccc(S(=O)(=O)N2CCOCC2)cc1`, for which the inhibition in assay [2] amounted to 50.8%.

Regarding `O=C1NC(=S)S/C1=C\c1ccccc1I`, the inhibition in assay [1] amounted to 39.2%.

With `Cc1cc(-c2nc(-c3ccc(C(F)(F)F)cc3)no2)n(C)n1`, the inhibition entry in assay [3] is “inactive”.

The compound `O=[N+]([O-])c1ccc(C2CC(c3cccnc3)=NN2c2ccccc2)cc1` (stereo not drawn) showed an inhibition in assay [1] of 43.9%.

On to `CC(C)C(NC(=O)OCc1ccccc1)C(=O)NC(C)(C)C` (stereo not drawn), for which the inhibition entry in assay [3] was “inactive”.

Regarding `Cc1ccc(S(=O)(=O)N(C)c2ccc(Cl)cc2C2=NCC(C)(C)c3ccccc32)cc1`, the inhibition in assay [1] was found to be 16.8%.

In assay [1], `O=C(Oc1cc(S(=O)(=O)c2ccccc2)ccc1[N+](=O)[O-])c1cccnc1Cl` yielded an inhibition of 19.7%.

For the compound `O=C(NC(=O)C(c1ccc(Cl)cc1)c1ncc(C(F)(F)F)cc1Cl)Nc1ccc(Cl)cc1` (stereo not drawn), in assay [3], the inhibition result is “inactive”.

In turn, `CCCCCCn1c(N)c(C#N)c2ccc([N+](=O)[O-])cc2c1=O` returned an inhibition in assay [1] of 32.2%.

As to `O=[N+]([O-])c1ccc(-c2csc(-c3ccc(Cl)cc3)n2)cc1CS(=O)(=O)c1ccc(Cl)cc1`, the inhibition result in assay [3] is “inactive”.

`Nc1c(C(=O)Nc2ccccc2)sc2nc3c(c(-c4cccnc4)c12)CCC3` gave an inhibition in assay [2] of 23.9%.

Regarding `O=C1c2cccc([N+](=O)[O-])c2C(=O)N1c1ccc(S(=O)(=O)c2ccc(N3C(=O)c4cccc([N+](=O)[O-])c4C3=O)cc2)cc1`, the inhibition entry in assay [3] is “inactive”.

Take `Clc1ccc(-c2cc(-c3csc(N/N=C/c4ccccc4)n3)on2)c(Cl)c1`: in assay [3], the inhibition entry was “inactive”.

Compound `Cc1ccc(S(=O)(=O)NC2(Nc3cccc(C)c3)C(Cl)=C(Cl)C(=O)C(Cl)(Cl)C2(Cl)Cl)cc1` (stereo not drawn) returned an inhibition in assay [2] of 24.9%.

Take `O=C(N/N=C/c1ccccc1O)N(c1ccccc1)c1ccccc1`: in assay [3], the inhibition result is “inactive”.

As to `Cc1cc(C)c(S(=O)(=O)Cc2ccccc2)c(OC(C)C)n1`, the inhibition entry in assay [3] is “inactive”.

Take `COc1cccc(C2Nc3ccccc3CN2NS(=O)(=O)c2ccc(C)cc2)c1O` (stereo not drawn): the inhibition in assay [2] amounted to 16.8%.

As for `N=C(NOC(=O)Nc1ccc(Cl)cc1)c1ccc(OCc2ncc(C(F)(F)F)cc2Cl)cc1`, the inhibition entry in assay [3] is “inactive”.

For `Cc1ccc(S(=O)(=O)C(Cl)(Cl)S(=O)(=O)c2ccc(C)cc2)cc1`, the inhibition in assay [1] came out at 41.6%.

Compound `CC(=O)OCC(COC(C)=O)(CN1C(=O)c2ccccc2C1=O)CN1C(=O)c2ccccc2C1=O` showed an inhibition in assay [2] of 60.2%.

As for `COc1ccc(C=C(C(=O)c2ccccc2)C(=O)c2ccccc2)cc1`, the inhibition in assay [1] came out at 30%.

With `COc1cc(C(c2c(O)oc3ccccc3c2=O)c2c(O)oc3ccccc3c2=O)cc(OC)c1OC`, the inhibition in assay [1] was determined as 27.8%.

Compound `CCN(CC#N)c1ccc(/C=N/c2ccc(SC)cc2)cc1` returned an inhibition in assay [2] of 15.8%.

Turning to `NC(=O)c1cc2c(c([N+](=O)[O-])c1)-c1c(cc(C(N)=O)cc1[N+](=O)[O-])C2=O`, in assay [2], the inhibition came out at 27.3%.

For `Cc1c(-c2ccnc(SCc3ccccc3)n2)sc2ccc(Cl)cc12`, the inhibition result in assay [3] was “inactive”.

`CC(=O)c1cc(C(=O)c2ccc(F)cc2)n2cnc3cc(F)ccc3c12`: the inhibition in assay [1] was 24.5%.

The term inhibition denotes how much of the control response was suppressed. Usually IC50 stands for the concentration needed to halve the response being measured.
